Experimental data published in patent US8987195B2 (priority 2012, dated 2015).
Like-named read-outs stand apart in the source and are kept apart here.

How the values were obtained:
HCV genotype 1b replicon = assay: HCV replicon assay, genotype 1b replicon EC50; format: cell-based, Hepatitis C virus; conditions: Hepatitis C virus, HCV replicon, genotype 1b, read-out: EC50 [gt-1b]
Outline: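 Replicon cells (Neo^r, some luciferase:Neo^r fusion); G418 removed at plating; compound dilution series, 24-48 h. Readout: RNA by 32P-probe hybridization/protection or TaqMan, normalized to cyclophilin A RNA, or luciferase. EC50 vs DMSO control, 4-parameter fit.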

[1] = target: HCV NS3/4A protease genotype 1b (Hepatitis C virus genotype 1b, UniProt P26663); assay: HCV NS3/4A protease time-resolved fluorescence (TRF) assay, Ki against genotype 1b; format: biochemical; conditions: IC50 [gt-1b], NS3/4A protease TRF assay, genotype 1b enzyme 0.2 nM
Outline: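 First, protease (genotype 1b 0.2 nM, A156T 0.4 nM, genotype 3a 0.025 nM) is preincubated 30 min with inhibitor. Next, 25 nM TRF substrate starts the reaction, run 2.5 h at room temperature. Finally, europium fluorescence is read and Ki calculated from IC50.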

Row | SMILES | EC50 (HCV genotype 1b replicon) | IC50 [1] | EC50 (HCV genotype 1b replicon; K+ salt) | IC50 ([1]; K+ salt)
1 | COc1ccc2nc(C)c3c(c2c1)CC[C@]1(C[C@H]2C(=O)N[C@]4(C(=O)NS(=O)(=O)C5(C)CC5)C[C@H]4/C=C\CCCCC[C@H](Nc4cccc(OC)n4)C(=O)N2C1)O3 [Example 431, (2R,6S,12Z,13aS,14aR,16aS)-9′-methoxy-6-[(6-methoxypyridin-2-yl)amino]-5′-methyl-N-[(1-methylcyclopropyl)sulfonyl]-5,16-dioxo-1,1′,2′,6,7,8,9,10,11,13a,14,15,16,16a-tetradecahydrospiro[cyclopropa[e]pyrrolo[1,2-a][1,4]diazacyclopentadecine-2,3′-pyrano[2,3-c]quinoline]-14a(5H)-carboxamide] | 9.12 nM | 0.209 nM |  | 
2 | COc1ccnc(N[C@H]2CCCCC/C=C\[C@@H]3C[C@@]3(C(=O)NS(=O)(=O)C3(C)CC3)NC(=O)[C@@H]3C[C@]4(CCc5c(c(C)nc6ccc(OC)cc56)O4)CN3C2=O)c1 [Example 432, (2R,6S,12Z,13aS,14aR,16aS)-9′-methoxy-6-[(4-methoxypyridin-2-yl)amino]-5′-methyl-N-[(1-methylcyclopropyl)sulfonyl]-5,16-dioxo-1,1′,2′,6,7,8,9,10,11,13a,14,15,16,16a-tetradecahydrospiro[cyclopropa[e]pyrrolo[1,2-a][1,4]diazacyclopentadecine-2,3′-pyrano[2,3-c]quinoline]-14a(5H)-carboxamide] | 7.5 nM | 0.091 nM |  | 
3 | CCc1nc2ccc(OC)cc2c2c1O[C@]1(CC2)C[C@H]2C(=O)N[C@]3(C(=O)NS(=O)(=O)C4(C)CC4)C[C@H]3/C=C\CCCCC[C@H](NC(=O)O[C@H](C)C(C)C)C(=O)N2C1 [Example 433, (2R)-3-methylbutan-2-yl [(2R,6S,12Z,13aS,14aR,16aS)-5′-ethyl-9′-methoxy-14a-{[(1-methylcyclopropyl)sulfonyl]carbamoyl}-5,16-dioxo-1,1′,2′,5,6,7,8,9,10,11,13a,14,14a,15,16,16a-hexadecahydrospiro[cyclopropa[e]pyrrolo[1,2-a][1,4]diazacyclopentadecine-2,3′-pyrano[2,3-c]quinolin]-6-yl]carbamate] | 2.17 nM | 0.012 nM |  | 
4 | CCc1nc2ccc(OC)cc2c2c1O[C@]1(CC2)C[C@H]2C(=O)N[C@]3(C(=O)NS(=O)(=O)C4(C)CC4)C[C@H]3/C=C\CCCCC[C@H](NC(=O)O[C@@H](C)C(C)C)C(=O)N2C1 [Example 434, (2S)-3-methylbutan-2-yl [(2R,6S,12Z,13aS,14aR,16aS)-5′-ethyl-9′-methoxy-14a-{[(1-methylcyclopropyl)sulfonyl]carbamoyl}-5,16-dioxo-1,1′,2′,5,6,7,8,9,10,11,13a,14,14a,15,16,16a-hexadecahydrospiro[cyclopropa[e]pyrrolo[1,2-a][1,4]diazacyclopentadecine-2,3′-pyrano[2,3-c]quinolin]-6-yl]carbamate] | 1.78 nM | 0.012 nM |  | 
5 | COC(=O)N[C@H]1CCCCC/C=C\[C@@H]2C[C@@]2(C(=O)NS(=O)(=O)C2(C)CC2)NC(=O)[C@@H]2C[C@]3(CCc4c(c(C5CC5)nc5ccc(OC)cc45)O3)CN2C1=O [Example 435, methyl [(2R,6S,12Z,13aS,14aR,16aS)-5′-cyclopropyl-9′-methoxy-14a-{[(1-methylcyclopropyl)sulfonyl]carbamoyl}-5,16-dioxo-1,1′,2′,5,6,7,8,9,10,11,13a,14,14a,15,16,16a-hexadecahydrospiro[cyclopropa[e]pyrrolo[1,2-a][1,4]diazacyclopentadecine-2,3′-pyrano[2,3-c]quinolin]-6-yl]carbamate] |  |  | 3.08 nM | 0.069 nM
6 | CCOC(=O)N[C@H]1CCCCC/C=C\[C@@H]2C[C@@]2(C(=O)NS(=O)(=O)C2(C)CC2)NC(=O)[C@@H]2C[C@]3(CCc4c(c(C5CC5)nc5ccc(OC)cc45)O3)CN2C1=O [Example 436, ethyl [(2R,6S,12Z,13aS,14aR,16aS)-5′-cyclopropyl-9′-methoxy-14a-{[(1-methylcyclopropyl)sulfonyl]carbamoyl}-5,16-dioxo-1,1′,2′,5,6,7,8,9,10,11,13a,14,14a,15,16,16a-hexadecahydrospiro[cyclopropa[e]pyrrolo[1,2-a][1,4]diazacyclopentadecine-2,3′-pyrano[2,3-c]quinolin]-6-yl]carbamate] |  |  | 1.18 nM | 0.029 nM
7 | CCCOC(=O)N[C@H]1CCCCC/C=C\[C@@H]2C[C@@]2(C(=O)NS(=O)(=O)C2(C)CC2)NC(=O)[C@@H]2C[C@]3(CCc4c(c(C5CC5)nc5ccc(OC)cc45)O3)CN2C1=O [Example 437, propyl [(2R,6S,12Z,13aS,14aR,16aS)-5′-cyclopropyl-9′-methoxy-14a-{[(1-methylcyclopropyl)sulfonyl]carbamoyl}-5,16-dioxo-1,1′,2′,5,6,7,8,9,10,11,13a,14,14a,15,16,16a-hexadecahydrospiro[cyclopropa[e]pyrrolo[1,2-a][1,4]diazacyclopentadecine-2,3′-pyrano[2,3-c]quinolin]-6-yl]carbamate] |  |  | 1 nM | 0.016 nM
8 | COCCCOc1ccc2nc(C)c3c(c2c1)CC[C@]1(C[C@H]2C(=O)N[C@]4(C(=O)NS(=O)(=O)C5(C)CC5)C[C@H]4/C=C\CCCCC[C@H](NC(=O)OC(C)(C)C)C(=O)N2C1)O3 [Example 438, tert-butyl [(2R,6S,12Z,13aS,14aR,16aS)-9′-(3-methoxypropoxy)-5′-methyl-14a-{[(1-methylcyclopropyl)sulfonyl]carbamoyl}-5,16-dioxo-1,1′,2′,5,6,7,8,9,10,11,13a,14,14a,15,16,16a-hexadecahydrospiro[cyclopropa[e]pyrrolo[1,2-a][1,4]diazacyclopentadecine-2,3′-pyrano[2,3-c]quinolin]-6-yl]carbamate] | 3.5 nM | 0.023 nM |  | 
9 | CCc1nc2ccc(OC)cc2c2c1O[C@]1(C[C@H]2F)C[C@H]2C(=O)N[C@]3(C(=O)NS(=O)(=O)C4(C)CC4)C[C@H]3/C=C\CCCCC[C@H](NC(=O)OC(C)(C)C)C(=O)N2C1 [Example 439, tert-butyl [(1′R,2S,6S,12Z,13aS,14aR,16aS)-5′-ethyl-1′-fluoro-9′-methoxy-14a-{[(1-methylcyclopropyl)sulfonyl]carbamoyl}-5,16-dioxo-1,1′,2′,5,6,7,8,9,10,11,13a,14,14a,15,16,16a-hexadecahydrospiro[cyclopropa[e]pyrrolo[1,2-a][1,4]diazacyclopentadecine-2,3′-pyrano[2,3-c]quinolin]-6-yl]carbamate] | 1.55 nM | 0.009 nM |  | 
10 | COc1ccc2nc(C(F)F)c3c(c2c1)CC[C@]1(C[C@H]2C(=O)N[C@]4(C(=O)NS(=O)(=O)C5(C)CC5)C[C@H]4/C=C\CCCCC[C@H](NC(=O)OCC(C)C)C(=O)N2C1)O3 [Example 440, 2-methylpropyl [(2R,6S,12Z,13aS,14aR,16aS)-5′-(difluoromethyl)-9′-methoxy-14a-{[(1-methylcyclopropyl)sulfonyl]carbamoyl}-5,16-dioxo-1,1′,2′,5,6,7,8,9,10,11,13a,14,14a,15,16,16a-hexadecahydrospiro[cyclopropa[e]pyrrolo[1,2-a][1,4]diazacyclopentadecine-2,3′-pyrano[2,3-c]quinolin]-6-yl]carbamate] |  |  | 1.98 nM | 0.016 nM
11 | COc1ccc2nc(C(F)F)c3c(c2c1)CC[C@]1(C[C@H]2C(=O)N[C@]4(C(=O)NS(=O)(=O)C5(C)CC5)C[C@H]4/C=C\CCCCC[C@H](NC(=O)OCC(C)(C)C)C(=O)N2C1)O3 [Example 441, 2,2-dimethylpropyl [(2R,6S,12Z,13aS,14aR,16aS)-5′-(difluoromethyl)-9′-methoxy-14a-{[(1-methylcyclopropyl)sulfonyl]carbamoyl}-5,16-dioxo-1,1′,2′,5,6,7,8,9,10,11,13a,14,14a,15,16,16a-hexadecahydrospiro[cyclopropa[e]pyrrolo[1,2-a][1,4]diazacyclopentadecine-2,3′-pyrano[2,3-c]quinolin]-6-yl]carbamate] |  |  | 1.53 nM | 0.016 nM
12 | COc1ccc2nc(C(F)F)c3c(c2c1)CC[C@]1(C[C@H]2C(=O)N[C@]4(C(=O)NS(=O)(=O)C5(C)CC5)C[C@H]4/C=C\CCCCC[C@H](NC(=O)O[C@@H](C)C(C)C)C(=O)N2C1)O3 [Example 442, (2S)-3-methylbutan-2-yl [(2R,6S,12Z,13aS,14aR,16aS)-5′-(difluoromethyl)-9′-methoxy-14a-{[(1-methylcyclopropyl)sulfonyl]carbamoyl}-5,16-dioxo-1,1′,2′,5,6,7,8,9,10,11,13a,14,14a,15,16,16a-hexadecahydrospiro[cyclopropa[e]pyrrolo[1,2-a][1,4]diazacyclopentadecine-2,3′-pyrano[2,3-c]quinolin]-6-yl]carbamate] |  |  | 1.68 nM | 0.024 nM
13 | COc1ccc2nc(C(F)F)c3c(c2c1)CC[C@]1(C[C@H]2C(=O)N[C@]4(C(=O)NS(=O)(=O)C5(C)CC5)C[C@H]4/C=C\CCCCC[C@H](NC(=O)O[C@H](C)C(C)C)C(=O)N2C1)O3 [Example 443, (2R)-3-methylbutan-2-yl [(2R,6S,12Z,13aS,14aR,16aS)-5′-(difluoromethyl)-9′-methoxy-14a-{[(1-methylcyclopropyl)sulfonyl]carbamoyl}-5,16-dioxo-1,1′,2′,5,6,7,8,9,10,11,13a,14,14a,15,16,16a-hexadecahydrospiro[cyclopropa[e]pyrrolo[1,2-a][1,4]diazacyclopentadecine-2,3′-pyrano[2,3-c]quinolin]-6-yl]carbamate] |  |  | 1.79 nM | 0.025 nM
